How the values were obtained:
Format in all cases: in vivo
[1] = test system: giant foxtail (Setaria faberi); test: Test G Post-Emergence Protocol; settings: Setaria faberi, post-emergence, 312 h, read-out: Foxtail, Giant damage rating; for pest or weed control at 15.625 g/ha: 15.625 g ai/ha, evaluated after 13 days (100=total damage to plant; 0=no damage to plant); for pest or weed control at 62.5 g/ha: 62.5 g ai/ha
In short: (§1)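 A glasshouse post-emergence test: 8-day-old plants sprayed at 15.625, 62.5 or 250 g/ha, then grown at 24/16 °C day/night with 14 h light and 65% humidity. Damage rated 13 days later, 0–100.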

[2] = test system: redroot pigweed (Amaranthus retroflexus); test: Test G Post-Emergence Protocol; settings: Amaranthus retroflexus, post-emergence, 312 h, read-out: Pigweed, Redroot damage rating; for pest or weed control at 15.625 g/ha: 15.625 g ai/ha, evaluated after 13 days (100=total damage to plant; 0=no damage to plant); for pest or weed control at 62.5 g/ha: 62.5 g ai/ha; for pest or weed control at 62.5 g/ha / pest or weed control at 250 g/ha: evaluated after 13 days, 100=total damage to plant, 0=no damage to plant; for pest or weed control at 250 g/ha: 250 g ai/ha
In short: as §1

[3] = test system: ivy-leaved morning glory (Ipomoea hederacea); test: Test G Post-Emergence Protocol; settings: Ipomoea, post-emergence, 312 h, read-out: Morningglory, Ivy-leaved damage rating; for pest or weed control at 15.625 g/ha: 15.625 g ai/ha, evaluated after 13 days (100=total damage to plant; 0=no damage to plant); for pest or weed control at 62.5 g/ha: 62.5 g ai/ha; for pest or weed control at 62.5 g/ha / pest or weed control at 250 g/ha: evaluated after 13 days, 100=total damage to plant, 0=no damage to plant; for pest or weed control at 250 g/ha: 250 g ai/ha
In short: as §1

[4] = test system: velvetleaf (Abutilon theophrasti); test: Test G Post-Emergence Protocol; settings: Abutilon theophrasti, post-emergence, 312 h, read-out: Velvetleaf damage rating; for pest or weed control at 15.625 g/ha: 15.625 g ai/ha, evaluated after 13 days (100=total damage to plant; 0=no damage to plant); for pest or weed control at 62.5 g/ha: 62.5 g ai/ha; for pest or weed control at 62.5 g/ha / pest or weed control at 250 g/ha: evaluated after 13 days, 100=total damage to plant, 0=no damage to plant; for pest or weed control at 250 g/ha: 250 g ai/ha
In short: as §1

[5] = test system: corn (Zea mays); test: Test G Post-Emergence Protocol; settings: Zea mays, post-emergence, 312 h, read-out: Corn damage rating; for plant injury at 15.625 g/ha: 15.625 g ai/ha, evaluated after 13 days (100=total damage to plant; 0=no damage to plant); for plant injury at 62.5 g/ha: 62.5 g ai/ha; for plant injury at 62.5 g/ha / plant injury at 250 g/ha: evaluated after 13 days, 100=total damage to plant, 0=no damage to plant; for plant injury at 250 g/ha: 250 g ai/ha
In short: as §1

[6] = test system: barnyardgrass (Echinochloa crus-galli); test: Test G Post-Emergence Protocol; settings: Echinochloa crus-galli, post-emergence, 312 h, read-out: Barnyardgrass damage rating; for pest or weed control at 15.625 g/ha: 15.625 g ai/ha, evaluated after 13 days (100=total damage to plant; 0=no damage to plant); for pest or weed control at 62.5 g/ha: 62.5 g ai/ha; for pest or weed control at 62.5 g/ha / pest or weed control at 250 g/ha: evaluated after 13 days, 100=total damage to plant, 0=no damage to plant; for pest or weed control at 250 g/ha: 250 g ai/ha
In short: as §1

[7] = test system: giant foxtail (Setaria faberi); test: Test G Pre-Emergence Protocol; settings: Setaria faberi, pre-emergence, 312 h, evaluated after 13 days; for pest or weed control at 15.625 g/ha: 15.625 g ai/ha; for pest or weed control at 15.625 g/ha / pest or weed control at 250 g/ha: read-out: Foxtail, Giant damage rating (100=total damage to plant; 0=no damage to plant); for pest or weed control at 62.5 g/ha: 62.5 g ai/ha, 100=total damage to plant, 0=no damage to plant, read-out: Foxtail, Giant damage rating; for pest or weed control at 250 g/ha: 250 g ai/ha
In short: (§2)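 Scores are visual damage ratings from 0 (no damage) to 100 (total plant kill), taken 13 days after treatment. Compound was sprayed one day post-sowing at 15.625, 62.5 or 250 g/ha in 50:50 acetone/water with 0.5% Tween 20.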

[8] = test system: redroot pigweed (Amaranthus retroflexus); test: Test G Pre-Emergence Protocol; settings: Amaranthus retroflexus, pre-emergence, 312 h, evaluated after 13 days; for pest or weed control at 15.625 g/ha: 15.625 g ai/ha; for pest or weed control at 15.625 g/ha / pest or weed control at 250 g/ha: read-out: Pigweed, Redroot damage rating (100=total damage to plant; 0=no damage to plant); for pest or weed control at 62.5 g/ha: 62.5 g ai/ha, 100=total damage to plant, 0=no damage to plant, read-out: Pigweed, Redroot damage rating; for pest or weed control at 250 g/ha: 250 g ai/ha
In short: as §2

[9] = test system: ivy-leaved morning glory (Ipomoea hederacea); test: Test G Pre-Emergence Protocol; settings: Ipomoea, pre-emergence, 312 h, evaluated after 13 days; for pest or weed control at 15.625 g/ha: 15.625 g ai/ha; for pest or weed control at 15.625 g/ha / pest or weed control at 250 g/ha: read-out: Morningglory, Ivy-leaved damage rating (100=total damage to plant; 0=no damage to plant); for pest or weed control at 62.5 g/ha: 62.5 g ai/ha, 100=total damage to plant, 0=no damage to plant, read-out: Morningglory, Ivy-leaved damage rating; for pest or weed control at 250 g/ha: 250 g ai/ha
In short: as §2

[10] = test system: velvetleaf (Abutilon theophrasti); test: Test G Pre-Emergence Protocol; settings: Abutilon theophrasti, pre-emergence, 312 h, evaluated after 13 days; for pest or weed control at 15.625 g/ha: 15.625 g ai/ha; for pest or weed control at 15.625 g/ha / pest or weed control at 250 g/ha: read-out: Velvetleaf damage rating (100=total damage to plant; 0=no damage to plant); for pest or weed control at 62.5 g/ha: 62.5 g ai/ha, 100=total damage to plant, 0=no damage to plant, read-out: Velvetleaf damage rating; for pest or weed control at 250 g/ha: 250 g ai/ha
In short: as §2

[11] = test system: corn (Zea mays); test: Test G Pre-Emergence Protocol; settings: Zea mays, pre-emergence, 312 h, evaluated after 13 days; for plant injury at 15.625 g/ha: 15.625 g ai/ha; for plant injury at 15.625 g/ha / plant injury at 250 g/ha: read-out: Corn damage rating (100=total damage to plant; 0=no damage to plant); for plant injury at 62.5 g/ha: 62.5 g ai/ha, 100=total damage to plant, 0=no damage to plant, read-out: Corn damage rating; for plant injury at 250 g/ha: 250 g ai/ha
In short: as §2

[12] = test system: barnyardgrass (Echinochloa crus-galli); test: Test G Pre-Emergence Protocol; settings: Echinochloa crus-galli, pre-emergence, 312 h, evaluated after 13 days; for pest or weed control at 15.625 g/ha: 15.625 g ai/ha; for pest or weed control at 15.625 g/ha / pest or weed control at 250 g/ha: read-out: Barnyardgrass damage rating (100=total damage to plant; 0=no damage to plant); for pest or weed control at 62.5 g/ha: 62.5 g ai/ha, 100=total damage to plant, 0=no damage to plant, read-out: Barnyardgrass damage rating; for pest or weed control at 250 g/ha: 250 g ai/ha
In short: as §2

[13] = evaluated after 13 days, 100=total damage to plant, 0=no damage to plant

SMILES | pest or weed control at 15.625 g/ha [1] | pest or weed control at 62.5 g/ha [1, 13] | pest or weed control at 15.625 g/ha [2] | pest or weed control at 62.5 g/ha [2] | pest or weed control at 250 g/ha [2] | pest or weed control at 15.625 g/ha [3] | pest or weed control at 62.5 g/ha [3] | pest or weed control at 250 g/ha [3] | pest or weed control at 15.625 g/ha [4] | pest or weed control at 62.5 g/ha [4] | pest or weed control at 250 g/ha [4] | plant injury at 15.625 g/ha [5] | plant injury at 62.5 g/ha [5] | plant injury at 250 g/ha [5] | pest or weed control at 15.625 g/ha [6] | pest or weed control at 62.5 g/ha [6] | pest or weed control at 250 g/ha [6] | pest or weed control at 15.625 g/ha [7] | pest or weed control at 62.5 g/ha [7] | pest or weed control at 250 g/ha [7] | further results
CN1CC(c2cc(C#N)cc(C(F)(F)F)c2)C(C(=O)Nc2cccc(F)c2F)C1=O (centres unmarked) [Compound 1684] | 0% | 0% | 0% | 0% | 0% | 0% | 0% | 0% | 0% | 0% | 0% | 0% | 0% | 0% | 0% | 0% | 0% | 0% | 0% | 0% | pest or weed control at 15.625 g/ha [8]: 0%; pest or weed control at 62.5 g/ha [8]: 0%; pest or weed control at 250 g/ha [8]: 10%; pest or weed control at 15.625 g/ha [9]: 0%; pest or weed control at 62.5 g/ha [9]: 0%; pest or weed control at 250 g/ha [9]: 0%; pest or weed control at 15.625 g/ha [10]: 0%; pest or weed control at 62.5 g/ha [10]: 0%; pest or weed control at 250 g/ha [10]: 0%; plant injury at 15.625 g/ha [11]: 0%; plant injury at 62.5 g/ha [11]: 0%; plant injury at 250 g/ha [11]: 10%; pest or weed control at 15.625 g/ha [12]: 0%; pest or weed control at 62.5 g/ha [12]: 0%; pest or weed control at 250 g/ha [12]: 0%
CN1C[C@@H](c2cc(Br)cc(Oc3ccccc3)c2)[C@H](C(=O)Nc2cccc(F)c2F)C1=O (racemic) [Compound 1821] | 0% | 10% | 0% | 30% | 70% | 0% | 0% | 10% | 0% | 10% | 0% | 10% | 10% | 30% | 0% | 0% | 0% | 0% | 10% | 60% | pest or weed control at 250 g/ha ([1]; 250 g ai/ha, evaluated after 13 days, 100=total damage to plant, 0=no damage to plant): 30%; pest or weed control at 15.625 g/ha [8]: 0%; pest or weed control at 62.5 g/ha [8]: 0%; pest or weed control at 250 g/ha [8]: 20%; pest or weed control at 15.625 g/ha [9]: 0%; pest or weed control at 62.5 g/ha [9]: 0%; pest or weed control at 250 g/ha [9]: 0%; pest or weed control at 15.625 g/ha [10]: 0%; pest or weed control at 62.5 g/ha [10]: 0%; pest or weed control at 250 g/ha [10]: 0%; plant injury at 15.625 g/ha [11]: 0%; plant injury at 62.5 g/ha [11]: 10%; plant injury at 250 g/ha [11]: 0%; pest or weed control at 15.625 g/ha [12]: 0%; pest or weed control at 62.5 g/ha [12]: 0%; pest or weed control at 250 g/ha [12]: 0%

Reference: patent US12077503B2, “Substituted cyclic amides and their use as herbicides” (FMC CORPORATION, priority 2015, dated 2024)
